The text below walks through data of PMC11887051, “Discovery of ONO-2920632 (VU6011887): A Highly Selective and CNS Penetrant TREK-2 (TWIK-Related K+ Channel 2) Preferring Activator In Vivo Tool Compound” (ACS Chemical Neuroscience, 2025).

One data set addresses Adrenergic α1A (Rattus norvegicus, UniProt P43140). The data set is described as follows: Eurofins Lead Profiling radioligand binding. The note with it: title: 30 μM.
The target of the next data set is Adrenergic α1B (Rattus norvegicus, UniProt P15823). As to the kind of experiment: Eurofins Lead Profiling radioligand binding. As to conditions: title: 30 μM.
The next data set concerns the target Adrenergic α1D (Homo sapiens, UniProt P25100). As to the kind of experiment: Eurofins Lead Profiling radioligand binding. The note with it: title: 30 μM.
A further data set deals with Adrenergic α2A (Homo sapiens, UniProt P08913). As to the kind of experiment: Eurofins Lead Profiling radioligand binding. The note with it: title: 30 μM.
The target of a further data set is Androgen (Testosterone) (Homo sapiens, UniProt P10275). As to the kind of experiment: Eurofins Lead Profiling radioligand binding. The note with it: title: 30 μM.
A further data set deals with Bradykinin B1 (Homo sapiens, UniProt P46663). As to the kind of experiment: Eurofins Lead Profiling radioligand binding. The note with it: title: 30 μM.
Data set [1] relates to Calcium Channel L-Type, Dihydropyridine. The data set is described as follows: Eurofins Lead Profiling radioligand binding. Set-up: species or system Rat. The note with it: title: 30 μM.
Another data set addresses Calcium Channel N-Type (Rattus norvegicus, UniProt Q02294). The data set is described as follows: Eurofins Lead Profiling radioligand binding. The note with it: title: 30 μM.
Another data set concerns the target Cannabinoid CB1 (Homo sapiens, UniProt P21554). As to the kind of experiment: Eurofins Lead Profiling radioligand binding. The note with it: title: 30 μM.
A further data set addresses Dopamine D2S (Homo sapiens, UniProt P14416). As to the kind of experiment: Eurofins Lead Profiling radioligand binding. As to conditions: title: 30 μM.
Another data set addresses Endothelin ETA (Homo sapiens, UniProt P25101). The data set is described as follows: Eurofins Lead Profiling radioligand binding. As to conditions: title: 30 μM.
For another data set, the target named is Endothelin ETB (Homo sapiens, UniProt P24530). The data set is described as follows: Eurofins Lead Profiling radioligand binding. The note with it: title: 30 μM.
For a further data set, the target named is Estrogen ERα (Homo sapiens, UniProt P03372). The data set is described as follows: Eurofins Lead Profiling radioligand binding. The note with it: title: 30 μM.
A further data set deals with Glutamate, NMDA, Glycine (Rattus norvegicus, UniProt P35439). As to the kind of experiment: Eurofins Lead Profiling radioligand binding. As to conditions: title: 30 μM.
The target in the next data set is Interleukin IL-1 R1 (Mus musculus, UniProt P13504). The data set is described as follows: Eurofins Lead Profiling radioligand binding. As to conditions: title: 30 μM.
A further data set has as its target Neuropeptide Y Y1 (Homo sapiens, UniProt P25929). As to the kind of experiment: Eurofins Lead Profiling radioligand binding. The note with it: title: 30 μM.
The target of the next data set is Neuropeptide Y Y2 (Homo sapiens, UniProt P49146). The data set is described as follows: Eurofins Lead Profiling radioligand binding. The note with it: title: 30 μM.
In another data set the target is hERG potassium channel (Homo sapiens, UniProt Q12809). The data set is described as follows: Eurofins Lead Profiling radioligand binding. As to conditions: title: 30 μM.
The target of another data set is Prostanoid EP4 (Homo sapiens, UniProt P35408). The data set is described as follows: Eurofins Lead Profiling radioligand binding. The note with it: title: 30 μM.
For a further data set, the target named is Serotonin (5-HT3) (Homo sapiens, UniProt P46098). As to the kind of experiment: Eurofins Lead Profiling radioligand binding. The note with it: title: 30 μM.
The target in a further data set is Sigma σ1 (Homo sapiens, UniProt Q99720). The data set is described as follows: Eurofins Lead Profiling radioligand binding. As to conditions: title: 30 μM.
The next data set addresses Vanilloid (Rattus norvegicus, UniProt O35433). The data set is described as follows: Eurofins Lead Profiling radioligand binding. As to conditions: title: 30 μM.
The next data set concerns the target T1, hCav1.2 (Homo sapiens, UniProt Q13936).
T1 construct: host or cells: CHO
The data set is described as follows: Cav1.2 calcium flux assay. The note with it: Ca2+ flux assay. It is filed as cell-based. The method, then:
% inhibition = 100 - (ΔRatio of test compound - ΔRatio of 1 µM control compound)/(ΔRatio of 0.3% DMSO - ΔRatio of 1 µM control compound)x100
Cav1.2 calcium flux assay protocol
CHO cells stably expressing human Cav1.2/b2/a2/d1 hCav1.2/CHO were purchased from ChanTest. hCav1.2/CHO were plated in 384-well plates at a density of 1.0x10^4 cells/well, and cultured overnight. After the wash by HBSS + 20 mM HEPES buffer, cells were loaded with Fluo-4 dye for 1 hour at room temperature. After the wash by HBSS + 20mM HEPES buffer, the fluorescent intensity was measured by Panoptic and test compounds, control compounds (verapamil) or 0.3% DMSO were added to each well. The change of fluorescent intensity (ΔRatio) and % inhibition to compare the efficacy and potency of test compounds were calculated using the […]
ΔRatio = (fluorescent intensity at 300 seconds after compound addition)/(average of fluorescent […]
% inhibition = 100 - (ΔRatio of test compound - ΔRatio of 10 µM control compound)/(ΔRatio of 0.3% DMSO - ΔRatio of 10 µM control compound)x100
In vitro Plasma protein binding and Brain homogenate binding: Determination of fraction unbound (f u) in plasma was conducted in vitro via equilibrium dialysis using HTDialysis (HTD) membrane plates. The top half of the plate was filled with 100 uL of Dubelco’s Phosphate Buffered Saline, pH 7.4 (DPBS). […]
(In general: A change in cytosolic calcium serves as a functional read-out for many receptors and channels.)

The next data set has as its target T2, TREK-1 (Homo sapiens, UniProt O95069).
T2 sequence (O95069 1-426): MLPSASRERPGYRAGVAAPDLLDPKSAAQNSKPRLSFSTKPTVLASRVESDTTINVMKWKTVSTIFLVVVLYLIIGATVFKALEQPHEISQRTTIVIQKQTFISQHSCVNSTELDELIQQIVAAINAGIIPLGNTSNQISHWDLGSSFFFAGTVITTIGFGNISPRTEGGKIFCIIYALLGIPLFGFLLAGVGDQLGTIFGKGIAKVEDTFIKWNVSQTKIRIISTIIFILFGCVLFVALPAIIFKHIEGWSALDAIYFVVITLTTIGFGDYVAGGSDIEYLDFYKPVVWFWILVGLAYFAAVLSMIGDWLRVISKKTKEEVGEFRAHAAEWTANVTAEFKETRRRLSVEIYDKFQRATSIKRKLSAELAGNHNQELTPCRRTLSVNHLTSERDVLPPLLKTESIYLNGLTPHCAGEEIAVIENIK
As to the kind of experiment: human TREK-1 MPC assay. The arrangement: host or cells: CHO. It is filed as cell-based.

Sequence of Interleukin IL-1 R1 (P13504 20-576): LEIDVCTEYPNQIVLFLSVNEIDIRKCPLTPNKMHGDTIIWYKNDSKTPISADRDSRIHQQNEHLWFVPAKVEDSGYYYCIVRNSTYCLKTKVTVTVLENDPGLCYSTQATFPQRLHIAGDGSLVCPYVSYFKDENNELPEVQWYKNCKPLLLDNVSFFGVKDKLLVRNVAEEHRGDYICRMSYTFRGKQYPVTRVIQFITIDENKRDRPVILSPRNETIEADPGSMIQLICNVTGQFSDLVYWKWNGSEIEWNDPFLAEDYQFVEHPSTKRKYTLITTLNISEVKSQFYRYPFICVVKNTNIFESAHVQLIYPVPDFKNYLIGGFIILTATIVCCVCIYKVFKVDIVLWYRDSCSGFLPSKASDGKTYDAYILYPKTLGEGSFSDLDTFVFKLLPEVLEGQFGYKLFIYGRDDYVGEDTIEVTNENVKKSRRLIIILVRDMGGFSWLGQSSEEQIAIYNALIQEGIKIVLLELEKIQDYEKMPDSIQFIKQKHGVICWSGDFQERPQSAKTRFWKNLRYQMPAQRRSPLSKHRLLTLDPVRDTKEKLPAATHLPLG
Sequence of Endothelin ETA (P25101 21-427): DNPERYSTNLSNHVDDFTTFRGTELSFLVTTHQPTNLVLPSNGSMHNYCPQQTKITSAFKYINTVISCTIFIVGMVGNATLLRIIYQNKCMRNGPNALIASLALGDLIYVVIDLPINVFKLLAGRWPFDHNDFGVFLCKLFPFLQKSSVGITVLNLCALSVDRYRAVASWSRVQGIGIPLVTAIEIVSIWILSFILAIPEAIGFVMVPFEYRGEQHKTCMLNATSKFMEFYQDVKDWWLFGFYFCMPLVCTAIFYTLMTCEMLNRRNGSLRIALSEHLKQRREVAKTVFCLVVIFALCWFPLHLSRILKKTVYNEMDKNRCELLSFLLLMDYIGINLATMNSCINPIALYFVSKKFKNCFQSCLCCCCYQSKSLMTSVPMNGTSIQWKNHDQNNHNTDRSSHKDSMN
Sequence of Endothelin ETB (P24530 27-442): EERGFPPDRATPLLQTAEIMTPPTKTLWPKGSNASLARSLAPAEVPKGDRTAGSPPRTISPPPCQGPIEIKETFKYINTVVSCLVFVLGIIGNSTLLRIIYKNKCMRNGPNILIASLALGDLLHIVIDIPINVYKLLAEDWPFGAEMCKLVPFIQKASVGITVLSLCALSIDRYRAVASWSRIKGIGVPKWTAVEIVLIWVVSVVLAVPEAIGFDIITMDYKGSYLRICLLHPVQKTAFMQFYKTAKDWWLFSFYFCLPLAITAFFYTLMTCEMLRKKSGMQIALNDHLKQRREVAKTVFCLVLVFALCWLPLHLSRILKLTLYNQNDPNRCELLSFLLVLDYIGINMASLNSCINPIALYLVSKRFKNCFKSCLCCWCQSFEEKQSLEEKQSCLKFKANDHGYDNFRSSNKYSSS
Sequence of Estrogen ERα (P03372 whole entry): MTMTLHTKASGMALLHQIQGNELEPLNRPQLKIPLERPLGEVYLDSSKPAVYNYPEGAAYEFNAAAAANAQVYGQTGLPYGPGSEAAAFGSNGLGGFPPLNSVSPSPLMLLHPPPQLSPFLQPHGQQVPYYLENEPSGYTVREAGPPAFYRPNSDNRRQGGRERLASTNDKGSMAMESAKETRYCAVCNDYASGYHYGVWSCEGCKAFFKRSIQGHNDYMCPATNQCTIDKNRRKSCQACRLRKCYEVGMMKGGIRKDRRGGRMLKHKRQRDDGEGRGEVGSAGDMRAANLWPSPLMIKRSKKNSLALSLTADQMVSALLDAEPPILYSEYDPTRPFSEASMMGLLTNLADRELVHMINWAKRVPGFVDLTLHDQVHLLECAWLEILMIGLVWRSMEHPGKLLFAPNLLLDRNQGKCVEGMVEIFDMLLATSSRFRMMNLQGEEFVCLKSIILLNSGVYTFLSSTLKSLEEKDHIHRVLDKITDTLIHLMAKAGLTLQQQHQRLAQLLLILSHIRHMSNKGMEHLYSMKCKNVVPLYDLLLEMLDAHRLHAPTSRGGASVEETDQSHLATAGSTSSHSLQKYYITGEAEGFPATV
Sequence of Adrenergic α1D (P25100 whole entry): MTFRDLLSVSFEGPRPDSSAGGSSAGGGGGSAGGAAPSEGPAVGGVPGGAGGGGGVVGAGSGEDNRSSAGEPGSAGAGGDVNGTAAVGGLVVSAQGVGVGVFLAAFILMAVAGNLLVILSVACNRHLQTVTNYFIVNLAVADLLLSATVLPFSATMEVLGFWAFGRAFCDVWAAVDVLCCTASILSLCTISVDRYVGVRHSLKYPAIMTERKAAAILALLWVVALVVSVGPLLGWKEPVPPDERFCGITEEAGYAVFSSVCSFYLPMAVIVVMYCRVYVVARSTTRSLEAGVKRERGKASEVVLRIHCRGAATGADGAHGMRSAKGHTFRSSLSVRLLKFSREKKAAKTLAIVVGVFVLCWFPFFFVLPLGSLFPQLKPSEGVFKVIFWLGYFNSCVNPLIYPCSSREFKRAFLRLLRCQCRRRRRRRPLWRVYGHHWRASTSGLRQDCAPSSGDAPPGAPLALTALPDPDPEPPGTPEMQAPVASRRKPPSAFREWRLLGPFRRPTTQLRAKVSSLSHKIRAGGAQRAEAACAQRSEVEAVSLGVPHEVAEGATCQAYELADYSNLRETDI
Sequence of Neuropeptide Y Y2 (P49146 whole entry): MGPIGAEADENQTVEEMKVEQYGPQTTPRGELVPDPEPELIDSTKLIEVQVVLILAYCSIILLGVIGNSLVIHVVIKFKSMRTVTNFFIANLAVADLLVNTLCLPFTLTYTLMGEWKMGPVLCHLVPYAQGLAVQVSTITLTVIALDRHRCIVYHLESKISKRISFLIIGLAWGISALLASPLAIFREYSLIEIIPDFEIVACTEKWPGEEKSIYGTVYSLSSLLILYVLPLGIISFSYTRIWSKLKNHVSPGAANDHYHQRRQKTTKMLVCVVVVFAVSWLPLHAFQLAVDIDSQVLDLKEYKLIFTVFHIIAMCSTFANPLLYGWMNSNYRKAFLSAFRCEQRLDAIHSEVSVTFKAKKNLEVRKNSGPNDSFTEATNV
Sequence of Vanilloid (O35433 whole entry): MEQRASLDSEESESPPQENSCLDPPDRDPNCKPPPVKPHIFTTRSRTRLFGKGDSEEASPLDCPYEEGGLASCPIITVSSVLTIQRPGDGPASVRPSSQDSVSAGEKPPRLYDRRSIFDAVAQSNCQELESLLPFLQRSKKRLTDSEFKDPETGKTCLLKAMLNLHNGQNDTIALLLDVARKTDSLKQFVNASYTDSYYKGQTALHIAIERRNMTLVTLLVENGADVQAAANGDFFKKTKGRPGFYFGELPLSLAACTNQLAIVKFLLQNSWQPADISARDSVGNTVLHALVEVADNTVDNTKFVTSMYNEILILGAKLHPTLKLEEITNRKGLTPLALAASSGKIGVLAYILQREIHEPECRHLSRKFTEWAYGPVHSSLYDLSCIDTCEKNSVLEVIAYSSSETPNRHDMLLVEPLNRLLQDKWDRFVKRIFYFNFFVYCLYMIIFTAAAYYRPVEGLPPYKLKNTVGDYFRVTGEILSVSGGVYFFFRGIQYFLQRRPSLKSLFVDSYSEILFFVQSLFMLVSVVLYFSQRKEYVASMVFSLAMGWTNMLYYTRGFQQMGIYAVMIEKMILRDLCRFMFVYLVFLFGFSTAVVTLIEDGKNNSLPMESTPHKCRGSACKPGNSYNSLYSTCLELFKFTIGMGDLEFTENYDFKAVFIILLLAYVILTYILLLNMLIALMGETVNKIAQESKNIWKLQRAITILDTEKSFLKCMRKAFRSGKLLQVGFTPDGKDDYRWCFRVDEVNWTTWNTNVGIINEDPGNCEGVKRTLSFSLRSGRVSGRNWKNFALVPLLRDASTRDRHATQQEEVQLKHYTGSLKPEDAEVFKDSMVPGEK
Sequence of Serotonin (5-HT3) (P46098 24-478): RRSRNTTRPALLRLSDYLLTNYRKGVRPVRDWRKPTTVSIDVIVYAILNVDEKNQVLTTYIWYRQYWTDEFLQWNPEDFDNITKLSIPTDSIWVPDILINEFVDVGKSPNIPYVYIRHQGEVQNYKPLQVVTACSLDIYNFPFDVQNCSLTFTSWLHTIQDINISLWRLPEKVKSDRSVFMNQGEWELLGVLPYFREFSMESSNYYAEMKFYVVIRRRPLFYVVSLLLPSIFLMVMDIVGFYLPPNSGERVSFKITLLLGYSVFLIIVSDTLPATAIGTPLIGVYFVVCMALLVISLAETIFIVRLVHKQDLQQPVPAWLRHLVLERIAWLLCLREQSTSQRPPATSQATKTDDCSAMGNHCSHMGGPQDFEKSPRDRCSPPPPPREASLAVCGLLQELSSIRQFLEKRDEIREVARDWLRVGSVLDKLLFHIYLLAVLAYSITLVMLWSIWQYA
Sequence of Adrenergic α2A (P08913 whole entry): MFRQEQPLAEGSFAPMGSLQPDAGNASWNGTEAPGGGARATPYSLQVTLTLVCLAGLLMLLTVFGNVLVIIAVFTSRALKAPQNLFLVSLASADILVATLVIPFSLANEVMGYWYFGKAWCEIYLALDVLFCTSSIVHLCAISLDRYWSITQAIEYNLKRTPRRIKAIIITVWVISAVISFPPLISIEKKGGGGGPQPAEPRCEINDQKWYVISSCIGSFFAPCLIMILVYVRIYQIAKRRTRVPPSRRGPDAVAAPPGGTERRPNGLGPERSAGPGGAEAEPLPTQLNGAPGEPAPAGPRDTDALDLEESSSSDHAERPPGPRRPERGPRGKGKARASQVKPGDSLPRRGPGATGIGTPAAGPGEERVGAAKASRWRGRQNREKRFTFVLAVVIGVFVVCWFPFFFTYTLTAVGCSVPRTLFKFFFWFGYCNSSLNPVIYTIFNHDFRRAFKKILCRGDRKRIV
Sequence of Sigma σ1 (Q99720 whole entry): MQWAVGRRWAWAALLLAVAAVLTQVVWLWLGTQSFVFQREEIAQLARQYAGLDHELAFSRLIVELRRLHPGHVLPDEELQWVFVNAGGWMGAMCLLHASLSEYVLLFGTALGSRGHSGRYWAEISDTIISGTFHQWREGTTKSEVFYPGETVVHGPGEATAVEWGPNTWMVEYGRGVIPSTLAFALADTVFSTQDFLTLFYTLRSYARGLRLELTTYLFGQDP

A word on the inhibition: it is the change of the read-out against control, counted positive when it falls. For orientation: % Inhibition means the drop in the measured response relative to a control, in per cent. As for `O=C(NCc1ccc(OC(F)(F)F)cc1F)c1ccc2ncnn2c1` [Compound 19b], the inhibition on Adrenergic α1A is 2%; on Adrenergic α2A, 3%; at Androgen (Testosterone), 18%; on Bradykinin B1, -12%; on Calcium Channel N-Type it was -1%; on Cannabinoid CB1 it was 17%. The inhibition at Endothelin ETA was -3%; on Estrogen ERα it was 1%; on Glutamate, NMDA, Glycine, -1%; on Interleukin IL-1 R1 it was 9%; on Neuropeptide Y Y1, 2%; on Neuropeptide Y Y2, -1%. Also, the inhibition at hERG potassium channel is 44%; on Prostanoid EP4 it was 14%; at Serotonin (5-HT3), 4%; at Sigma σ1 it was 45%; on Vanilloid, -8%. In addition, the inhibition at 10 µM on Adrenergic α1B turned out to be 6%; at Adrenergic α1D, 4%; on Dopamine D2S, 6%; at Endothelin ETB, 4%. Besides, the “% Inhibition at 10 µM” value in data set [1] is on record as -2%.
For orientation: IC50 means the midpoint of a concentration-inhibition curve. By EC50 is commonly meant the concentration at which the effect is half-maximal. Low readings indicate an effect from little substance, high ones a need for much substance. The term Emax denotes the size of the effect at its maximum, as opposed to the concentration needed. For the molecule `O=C(NCc1ccc(OC(F)(F)F)cc1Cl)c1ccc2nncn2c1` [Compound 20], the IC50 at hCav1.2 was over 30 µM. Further, at TREK-1, a half-maximal effect (EC50) was put at 0.33 µM and the maximum response (Emax) is 172%.
